In US20020068827A1, “Quinoline-4-carboxamide derivatives, their preparation and their use as neurokinin 3 ( NK-3 ) - and neurokinin 2 ( NK-3 ) receptor antagonists” (SmithKline Beecham S.p.A., priority 1995, published 2002):
Counter-ions that a name gives are not always drawn.

Experiments:
[1] = target: T1, human neurokinin-3 receptors expressed in CHO cell lines (Homo sapiens, UniProt P29371); assay: Binding affinity in hNK-3-CHO; details: human NK-3 receptors in CHO cell lines; radioligand [125I]-[Me-Phe7]-NKB
T1 construct: expressed in transfected cells; host or cells: CHO cells
T1 sequence (P29371 1-465): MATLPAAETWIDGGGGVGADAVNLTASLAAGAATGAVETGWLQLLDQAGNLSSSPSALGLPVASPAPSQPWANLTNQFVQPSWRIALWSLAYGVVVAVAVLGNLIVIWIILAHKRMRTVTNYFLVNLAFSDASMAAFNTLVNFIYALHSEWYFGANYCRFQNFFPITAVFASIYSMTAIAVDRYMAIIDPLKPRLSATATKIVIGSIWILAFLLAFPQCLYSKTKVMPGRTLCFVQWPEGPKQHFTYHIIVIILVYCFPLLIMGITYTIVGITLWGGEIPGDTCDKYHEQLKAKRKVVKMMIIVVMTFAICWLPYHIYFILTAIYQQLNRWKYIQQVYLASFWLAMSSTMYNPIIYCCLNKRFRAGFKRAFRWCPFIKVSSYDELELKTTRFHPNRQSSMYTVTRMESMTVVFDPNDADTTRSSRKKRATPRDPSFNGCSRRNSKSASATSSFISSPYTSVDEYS
Experimental: The activity of the compounds of the present invention, as NK3 ligands, is determined by their ability to inhibit the binding of the radiolabelled NK3 ligands. [^125I]-[Me-Phe^7]-NKB or [^3H]-Senktide, to guinea-pig and human NK3 receptors (Renzetti et al. 1991, Neuropeptide, 18, 104-114; Buell et al, 1992, FEBS, 299(1), 90-95; Chung et al, 1994, Biochem. Biophys. Res. Commun., 198(3), 967-972).
The binding assays utilized allow the determination of the concentration of the individual compound required to reduce by 50% the [^125I]-[Me-Phe^7]-NKB and [^3H]-Senktide specific binding to NK3 receptor in equilibrium conditions (IC50).
Binding assays provide for each compound tested a mean IC50 value of 2-5 separate experiments performed in duplicate or triplicate. […] The NK3-antagonist activity of the compounds of the present invention is determined by their ability to inhibit senktide-induced contraction of the guinea-pig ileum (Maggi et al, 1990, Br. J. Pharmacol., 101, 996-1000) and rabbit isolated iris sphincter muscle (Hall et al., 1991, Eur. J. Pharmacol., 199, 9-14) and human NK3 receptors-mediated Ca^++ mobilization (Mochizuki et al. 1994, J. Biol. Chem., 269, 9651-9658). Guinea-pig and rabbit in-vitro functional assays provide for each compound tested a mean KB value of 3-8 separate experiments, where KB is the concentration of the individual compound required to produce a 2-fold rightward shift in the concentration-response curve of senktide. Human receptor functional assay allows the determination of the concentration of the individual compound required to reduce by 50% (IC50 values) the Ca^++ mobilization induced by the agonist NKB. In this assay, the compounds of the present invention behave as antagonists.

Row | Structure (SMILES) | melting point | IC50 [1]
1 | CC[C@H](NC(=O)c1c(OCCCN2CCN(C)CC2)c(-c2ccccc2)nc2ccccc12)c1ccccc1 (as salt: HCl) [Example 31] | 160 to 170 °C | 
2 | CC[C@H](NC(=O)c1c(OCCCN2CCN(c3ncccn3)CC2)c(-c2ccccc2)nc2ccccc12)c1ccccc1 (as salt: HCl) [Example 40] | 140 °C (dec.) | 
3 | CC[C@H](NC(=O)c1c(OCCCN)c(-c2ccccc2)nc2ccccc12)c1ccccc1 [Example 11, (S)-N-(α-ethylbenzyl)-3-(3-aminopropoxy)-2-phenylquinoline-4-carboxamide Hydrochloride] |  | 2.6 nM
4 | CC[C@H](NC(=O)c1c(OCCN2C(=O)CCC2=O)c(-c2ccccc2)nc2ccccc12)c1ccccc1 [Example 15, (S)-N-(α-ethylbenzyl)-3-(2-succinimidoethoxy)-2-phenylquinoline-4-carboxamide] | 80 °C (dec.) | 
5 | CC[C@H](NC(=O)c1c(OCCN2C(=O)C=CC2=O)c(-c2ccccc2)nc2ccccc12)c1ccccc1 [Example 16, (S)-N-(α-ethylbenzyl)-3-(2-maleimidoethoxy)-2-phenylquinoline-4-carboxamide] | 74 to 78 °C | 
6 | CC[C@H](NC(=O)c1c(OCCN2C(=O)CNC2(C)C)c(-c2ccccc2)nc2ccccc12)c1ccccc1 [Example 17, (S)-N-(α-ethylbenzyl)-3-[2-(2,2-dimethyl-4-oxo-3-imidazolidinyl)ethoxy]-2-phenylquinoline-4-carboxamide] | 160 to 162 °C | 3.4 nM
7 | CC[C@H](NC(=O)c1c(CN2CCN(c3ccccc3)CC2)c(-c2ccccc2)nc2ccccc12)c1ccccc1 [Example 30] | 142 to 145 °C | 1.1 nM
8 | CC[C@H](NC(=O)c1c(OCCCN2CCN(C)CC2)c(-c2ccccc2)nc2ccccc12)c1ccccc1 [Example 31] |  | 3.3 nM
9 | CC[C@H](NC(=O)c1c(OCCCN2CCN(c3cccc(Cl)c3)CC2)c(-c2ccccc2)nc2ccccc12)c1ccccc1 [Example 34] | 115 to 135 °C | 0.8 nM
10 | CC[C@H](NC(=O)c1c(OCCCN2CCN(c3ncccn3)CC2)c(-c2ccccc2)nc2ccccc12)c1ccccc1 [Example 40] |  | 1.1 nM
11 | CC[C@H](NC(=O)c1c(OCCCN2C(=O)c3nccnc3C2=O)c(-c2ccccc2)nc2ccccc12)c1ccccc1 [Example 42] | 100 to 105 °C | 2.7 nM

Now from value to compound:

Row | melting point | IC50 [1] | Structure (SMILES)
12 | 86 °C (dec.) |  | CC[C@H](NC(=O)c1c(OCCCN2CCN(c3ccccc3)CC2)c(-c2ccccc2)nc2ccccc12)c1ccccc1 (as salt: HCl) [Example 33]
13 |  | 1.6 nM | CC[C@H](NC(=O)c1c(OCCO)c(-c2ccccc2)nc2ccccc12)c1ccccc1 [Example 2, (S)-N-(α-ethylbenzyl)-3-(2-hydroxyethoxy)-2-phenylquinoline-4-carboxamide]
14 | 95 °C (dec.) | 1.2 nM | CC[C@H](NC(=O)c1c(OCCN2Cc3ccccc3C2)c(-c2ccccc2)nc2ccccc12)c1ccccc1.Cl.Cl [Example 5, (S)-N-(α-ethylbenzyl)-3-[2-(2-isoindolinyl)ethoxy]-2-phenylquinoline-4-carboxamide Dihydrochloride]
15 | 159 to 161 °C | 0.8 nM | CC[C@H](NC(=O)c1c(OCCN2C(=O)Cc3ccccc3C2=O)c(-c2ccccc2)nc2ccccc12)c1ccccc1 [Example 6, (S)-N-(α-ethylbenzyl)-3-(2-homophthalimidoethoxy)-2-phenylquinoline-4-carboxamide]
16 | 125 to 128 °C | 3.2 nM | CC[C@H](NC(=O)c1c(OCCCN2C(=O)c3ccccc3C2=O)c(-c2ccccc2)nc2ccccc12)c1ccccc1 [Example 9, (S)-N-(α-ethylbenzyl)-3-(3-phthalimidopropoxy)-2-phenylquinoline-4-carboxamide]
17 | 153 to 156 °C | 1.7 nM | CC[C@H](NC(=O)c1c(OCCN2Cc3ccccc3CC2=O)c(-c2ccccc2)nc2ccccc12)c1ccccc1 [Example 14, (S)-N-(α-ethylbenzyl)-3-[2-(1,4-dihydro-3(2H)-isoquinolinon-2-yl)ethoxy]-2-phenylquinoline-4-carboxamide]
18 | 151 to 155 °C | 0.4 nM | CC[C@H](NC(=O)c1c(OCCCN2CCN(c3ccccc3OC)CC2)c(-c2ccccc2)nc2ccccc12)c1ccccc1.Cl.Cl [Example 18, (S)-N-(α-ethylbenzyl)-3-{3-[4-(2-methoxyphenyl)piperazin-1-yl]propoxy}-2-phenylquinoline-4-carboxamide Dihydrochloride]
19 | 147 to 150 °C | 0.9 nM | CC[C@H](NC(=O)c1c(OCCN2C(=O)[C@@H](c3ccccc3)NC2(C)C)c(-c2ccccc2)nc2ccccc12)c1ccccc1 [Example 21, (S)-N-(α-ethylbenzyl)-3-{2-[2,2-dimethyl-5-(R)-phenyl-4-oxo-3-imidazolidinyl]ethoxy}-2-phenylquinoiine-4-carboxamide]
20 | 71 °C (dec.) | 1.3 nM | CC[C@H](NC(=O)c1c(OCCN2CCc3ccccc3C2=O)c(-c2ccccc2)nc2ccccc12)c1ccccc1 [Example 22, (S)-N-(α-ethylbenzyl)-3-[2-(3,4-dihydro-1(2H)-isoquinolinon-2-yl)ethoxy]-2-phenylquinoline-4-carboxamide]
21 |  | 0.7 nM | CC[C@H](NC(=O)c1c(OCCCN2CCN(c3ccccc3)CC2)c(-c2ccccc2)nc2ccccc12)c1ccccc1 [Example 33]
